Where two headings read alike, the source gives them in different places.
Experiment: pKa values by non-aqueous titration (half neutralization potential)
Assay type: physicochemical
Settings: for HPN: 1:1 acetonitrile:chloroform, 0.1N perchloric acid/dioxane titrant
Experimental: In order to determine the pKa values of water insoluble materials, organic references with known pKa values in water are titrated non-aqueously. A plot of the half neutralization potential (HNP) versus the known aqueous pKa value of the reference material is established. The HNP of the test material is determined and extrapolated to find the corresponding pKa value of the test material. Such organic reference materials include 2,2,6,6-tetrarnethylpiperidine; 4-hydroxy-2,2,6,6-tetramethylpiperidine; 1-hydroxyethyl-4-hydroxy-2,2,6,6-tetramethylpiperidine; triacetoneamine and N-methylaniline.
The reference materials, which are structurally at least peripherally related to the instant test materials and are soluble in both water and 1:1 acetonitrile:chloroform, are used to make a calibration plot in the non-aqueous titration (1:1 acetonitrile:chloroform solvent and 0.1N perchloric acid/dioxane titrant) system. Approximately 0.5 milliequivalents of test material is weighed into a titration beaker. Thirty mL of acetonitrile is added to dissolve the sample. Prior to titration, 30 mL of chloroform is added. Titration is carried out and the HNP is determined. The electrolyte for the reference electrode is 2-(aminomethylpyridine. The electrode is allowed to stand in the solvent system for two hours after filling with the electrolyte to achieve equilibration. All samples are run in duplicate. The pKa values are seen in the table below.

[1] = extrapolated from HNP versus known aqueous pKa of reference materials
[2] = extrapolated from HNP versus known aqueous pKa of reference materials, read-out: Calculated pKa
[3] = pKa of the test hindered amine contained in the formulation, read-out: HALS pKa

SMILES	HPN [mv]	Calculated pKa [1]	pKa [2]	pKa [3]
CC(C)(O)CON1C(C)(C)CC(OC(=O)CCCCCCCCC(=O)OC2CC(C)(C)N(OCC(C)(C)O)C(C)(C)C2)CC1(C)C [Example 2]	513	3.8	–	–
CCCCCCCCON1C(C)(C)CC(OC(=O)CCCCCCCCC(=O)OC2CC(C)(C)N(OCCCCCCCC)C(C)(C)C2)CC1(C)C [TINUVIN® 123, bis(1-octyloxy-2,2,6,6-tetramethylpiperidin-4-yl) sebacate]	–	–	4.6	4.6
CC1(C)CC(OC(=O)CCCCCCCCC(=O)OC2CC(C)(C)NC(C)(C)C2)CC(C)(C)N1 [TINUVIN® 770, bis(2,2,6,6-tetramethylpiperidin-4-yl) sebacate]	–	–	–	9.1

The next lines start with the values.

HPN [mv]	Calculated pKa [1]	pKa [2]	pKa [3]	SMILES
523	–	3.9	4	CCCCCCCCCCCCCCCCCC(=O)OC1CC(C)(C)N(OCC(C)(C)O)C(C)(C)C1 [Example 73, 1-(2-Hydroxy-2-methylpropoxy)-4-octadecanoyloxy-2,2,6,6-tetramethylpiperidine]
436	4.9	–	–	CCCCCCCCCCCCCCCCCC(=O)OC1CC(C)(C)N(OC2CCCCC2)C(C)(C)C1 [II, 1-cyclohexyloxy-4-ocatadecanoyloxy-2,2,6,6-tetramethylpiperidine]

From US6376584B1, “Hydroxy-substituted N-alkoxy hindered amines and compositions stabilized therewith” (Ciba Specialty Chemicals Corporation, priority 1999, dated 2002)
